From patent EP4682144A1, “SOLID FORM OF PYRROLIDONE DERIVATIVE AS GLUCOKINASE ACTIVATOR” (Hua Medicine (Shanghai) Ltd., priority 2023, dated 2024)

Legend:
Assay type in all cases: physicochemical
[1] = High-temperature stability test (60°C, HPLC)
From the text: (§1) The resulting sample was sampled at day 6, day 14 and day 34 for HPLC analysis.

[2] = Preliminary solubility test in solvents at room temperature; details: listed as crystal form A of the free state
Procedure: Table 10 Solubility range of the starting material sample at room temperature
The solubility range in the corresponding solvent was calculated based on the mass of the sample and the volume of the added solvent, as shown in Table 28. The data were used as a base to guide the selection of solvent in screening tests. Table 28 Preliminary solubility of crystal form A of the free state at room temperature
The solubility range in the corresponding solvent was calculated based on the mass of the sample and the volume of the added solvent, as shown in Table 35. The data were used as a base to guide the selection of solvent in the screening tests.

[3] = Photostability test (direct sunlight, HPLC)
From the text: The resulting sample was sampled at day 4 and day 15 for HPLC analysis.

[4] = Dissolution stability in different pH and biologically relevant media (XRPD before and after); details: pH 1.0, 1.2, 3.0, 4.5, 5.0, 6.8, 7.0, 7.4, 9.0, FaSSGF (pH 1.6), FaSSIF (pH 6.5), FeSSIF (pH 5.0)
[5] = Forced degradation stability test (heat, humidity and heat, light)
Procedure: Crystal form A of the free state was placed under the following different conditions for the forced degradation stability test: • About 10 mg of the sample powder was weighed into a vial and placed under the conditions of 50 °C, 80°C, and 40 °C/75%RH (unsealed) for 1 day, 2 weeks, and 4 weeks, respectively. And then, the thermal stability was evaluated. • About 10 mg of the sample powder was weighed and placed in a transparent vial, an amber vial, and a transparent vial sealed with aluminum foil, respectively. Those vials were placed in a light box for 10 days, with a total illumination of 1.2×10^6 Lux·hr and a near-UV energy not less than 200w·hr/m^2, for photostability evaluation.
The samples were taken at each time point for HPLC and XRPD analysis to evaluate the chemical and physical stability.

[6] = Dynamic vapour sorption (DVS) test
Procedure: A certain amount of powder was taken and put into a sample pan, and hygroscopicity of the sample was evaluated with DVS according to the following instrument method:

[7] = High-humidity stability test (90% RH, HPLC)
From the text: as §1

## CC(C)C[C@@H](C(=O)Nc1ccn(C[C@@H](O)COC(=O)c2cccnc2)n1)N1CC(Oc2ccccc2Cl)=CC1=O [Free state crystal form A, (R)-3-(3-((S)-2-(4-(2-chlorophenoxy)-2-oxo-2,5-dihydro-1H-pyrrol-1-yl)-4-methylpentanamido)-1H-pyrazol-1-yl)-2-hydroxypropyl nicotinate]
[1]; 0h
  Purity (Area%): 98.17 Area%
[1]; 60°C for 14 days
  stability at high temperature: still stable
[1]; 60°C, Day 6, without cover
  Purity (Area%): 99.03 Area%
[1]; 60°C, Day 14, without cover
  Purity (Area%): 99.11 Area%
[2]; 1,4-Dioxane, room temperature
  Solubility (mg/mL): S>40.0 mg/mL
[2]; Acetone, room temperature
  Solubility (mg/mL): S>40.0 mg/mL
[2]; CHCl3, room temperature
  Solubility (mg/mL): S>40.0 mg/mL
[2]; DCM, room temperature
  Solubility (mg/mL): S>40.0 mg/mL
[2]; DMAc, room temperature
  Solubility (mg/mL): S>40.0 mg/mL
[2]; DMSO, room temperature
  Solubility (mg/mL): S>42.0 mg/mL
[2]; H2O, room temperature
  Solubility (mg/mL): S<1.0 mg/mL
[2]; MTBE, room temperature
  Solubility (mg/mL): S<1.0 mg/mL
[2]; MeOH, room temperature (25±3 °C)
  Solubility (mg/mL): S>42.0 mg/mL
[2]; NMP, room temperature
  Solubility (mg/mL): S>40.0 mg/mL
[2]; THF, room temperature
  Solubility (mg/mL): S>40.0 mg/mL
[2]; Toluene, room temperature
  Solubility (mg/mL): S<1.0 mg/mL
[2]; n-Heptane, room temperature
  Solubility (mg/mL): S<1.1 mg/mL
[3]; 0 hour
  Purity (Area%): 98.17 Area%
[3]; Photostability Day 4, direct sunlight
  Purity (Area%): 99.07 Area%
[3]; Photostability Day 15, direct sunlight
  Purity (Area%): 99.10 Area%
[3]; sunlight for 15 days
  stability under sunlight: still stable
[4]
  crystal form before and after solubility test (XRPD): does not change
[5]; 40°C/75%RH (unsealed), 2 weeks, HPLC
  Purity, %: 99.15%
[5]; 40°C/75%RH (unsealed), 4 weeks, HPLC
  Purity, %: 99.15%
[5]; 40°C/75%RH (unsealed), 24 hours, HPLC
  Purity, %: 99.09%
[5]; 50°C, 2 weeks, HPLC
  Purity, %: 99.10%
[5]; 50°C, 4 weeks, HPLC
  Purity, %: 99.11%
[5]; 50 °C, 80°C, 40 °C/75%RH (unsealed)
  high-temperature and humidity-thermal stability: excellent
[5]; 50 °C, 80°C, 40 °C/75%RH for 1 day, 2 weeks, 4 weeks, light box 10 days
  crystalline form under forced degradation test conditions (XRPD): does not change
[5]; 50°C, 24 hours, HPLC
  Purity, %: 99.08%
[5]; 80°C, 2 weeks, HPLC
  Purity, %: 99.12%
[5]; 80°C, 4 weeks, HPLC
  Purity, %: 99.14%
[5]; 80°C, 24 hours, HPLC
  Purity, %: 99.12%
[5]; Light-amber vial, 10 days, light box, […]10^6 Lux·hr
  Purity, %: 99.17%
[5]; Light-transparent vial sealed with aluminum foil, 10 days, light box, […]10^6 Lux·hr
  Purity, %: 99.17%
[5]; Light-transparent vial, 10 days, light box, […]10^6 Lux·hr
  Purity, %: 99.10%
[5]; Starting, 0h, HPLC
  Purity, %: 99.10%
[5]; light box 10 days, […]10^6 Lux·hr
  effect of light on the stability: no effect
[6]; DVS, 25 °C, 80%RH
  Water sorption capacity at 80%RH, %: 0.3556%
[6]; DVS, 25 °C, 90%RH
  Water sorption capacity at 90%RH, %: 0.4782%
[6]; DVS, 25 °C, 95%RH
  Water sorption capacity at 95%RH, %: 0.6525%
[6]; relative humidity of 95%
  moisture-induced weight gain: less than 0.7%
[6]; relative humidity of less than or equal to 90%, listed as crystal form A of the free state
  moisture-induced weight gain: less than 0.5%
[7]; 0 hour
  Purity (Area%): 98.17 Area%
[7]; 90% relative humidity for 14 days
  stability at high humidity: still stable
[7]; 90%RH, Day 6, without cover
  Purity (Area%): 98.99 Area%
[7]; 90%RH, Day 14, without cover
  Purity (Area%): 99.09 Area%
